# Source: US20220378732A1, “SmartCore Compositions and Methods” (NPI, LLC, priority 2020, published 2022)
# How the values were obtained:
# T2D mouse model = test: serum LPC-fatty acid levels after 4 weeks of administration in T2D mouse model; format: in vivo, mice; conditions: for serum concentration of LPC-arachidonic acid (AA) / serum concentration of LPC-eicosapentaenoic acid (EPA) / serum concentration of α-linolenic acid (aLA): FIG. 5; for change in serum LPC-18:2 / change in serum LPC-DHA: T2D mouse model, 4 weeks of administration; for change in serum LPC-18:2: FIG. 3; for change in serum LPC-DHA: FIG. 4
# Procedure: To validate the inventors' hypotheses on the biological activity of the lignan and methyl donor various animal experiments were performed using mice as test subjects. Diabetes (type 1 and type 2) was used as model disease for LPC deficiency. Type 2 (T2D) diabetic mice were 6-week-old BKS.Cg-Dock7m+/+Leprdb/J (db/db), leptin receptor deficient. Hyperglycemia was confirmed (BG>250 mg/dl). Upon confirmation, all animals were subjected to 4-week treatment as indicated below. Treatment groups were as follows: Control, MSM treatment alone, sesame seed oil treatment alone, and MSM+sesame seed oil treatment. For harvest, serum was collected for lipid panel and analyzed using standard clinical protocol and equipment. Tissues (brain, eyes, heart, liver, kidneys) for fatty acid analysis was frozen at −80° C., and liver sections preserved in formalin for histology. MSM was administered as 1% MSM solution in water: 15-20 ml water was given per ˜25 g mouse per day (6-8 g/kg dose for ˜25 g mouse; 3-5 g/kg dose for ˜40 g mouse). Sesamin was provided as 1.58 mg/mL sesamin in sesame seed oil with 0.12-0.15 mg/g sesamin in mouse food (T1D: 4.4 g food per mouse per day; T2D: 7-8 g food per mouse per day; 20-22 mg/kg dose for mouse (both models)). After 4 weeks of administration of the tested compounds in the T2D mouse model, LPC-18:2 and LPC-DHA were determined from plasma and exemplary results are shown in FIG. 3 and FIG. 4, respectively.
# [1] = tested on: high-fat diet-induced dyslipidemia; conditions: Nutrients 2016, 8, 276; cited from earlier work
# [2] = tested on: mice with high-fat diet-induced diabetes; conditions: Exp Physiol 100.11 (2015); cited from earlier work
SMILES,serum concentration of LPC-arachidonic acid (AA) (T2D mouse model),serum concentration of LPC-eicosapentaenoic acid (EPA) (T2D mouse model),serum concentration of α-linolenic acid (aLA) (T2D mouse model),change in serum LPC-18:2 (T2D mouse model),change in serum LPC-DHA (T2D mouse model),effect on high-fat diet-induced dyslipidemia and kidney injury [1],effect on exercise capacity and skeletal muscle mitochondrial function [2]
"CS(C)(=O)=O [MSM, methylsulfonylmethane]",did not result in an increase,did not result in an increase,did not result in an increase,did not trigger a statistically relevant change,did not trigger a statistically relevant change,–,–
c1cc2c(cc1[C@H]1OC[C@H]3[C@@H]1CO[C@@H]3c1ccc3c(c1)OCO3)OCO2 [sesamin],did not result in an increase,did not result in an increase,did not result in an increase,did not trigger a statistically relevant change,did not trigger a statistically relevant change,ameliorating high-fat diet-induced dyslipidemia and kidney injury,prevent decline in exercise capacity and impairment of skeletal muscle mitochondrial function
